Data published in publication PMC4596862, “Stereochemical Control in the Still-Wittig Rearrangement Synthesis of Cyclohexyl (Z)-Alkene Inhibitors of Pin1” (PLoS ONE, 2015).

Target: Pin1 (Homo sapiens, UniProt Q13526)
Assay: protease-coupled PPIase assay (pNA release at […] nm, […]°C)
Type: biochemical

Sequence of Pin1 (Q13526 whole entry): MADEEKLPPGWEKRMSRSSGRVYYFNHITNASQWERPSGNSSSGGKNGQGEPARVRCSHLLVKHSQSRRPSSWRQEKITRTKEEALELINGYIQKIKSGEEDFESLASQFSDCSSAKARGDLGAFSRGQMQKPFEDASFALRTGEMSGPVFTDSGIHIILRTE

Row | IC50 | Structure (SMILES)
1 | 52 ± 4 µM | CC(=O)N[C@H](/C=C1/CCCC[C@@H]1C(=O)NCCc1ccc2ccccc2c1)COP(=O)(O)O [(2R,5S)-1, Ac–L-pSer–Ψ[(Z)CH = C]-D-Pip–NEA]
2 | 85 ± 10 µM | CC(=O)N[C@@H](/C=C1/CCCC[C@H]1C(=O)NCCc1ccc2ccccc2c1)COP(=O)(O)O [(2S,5R)-1, Ac–D-pSer–Ψ[(Z)CH = C]–L-Pip–2-(2-naphthyl)ethylamine (NEA)]
3 | 140 ± 20 µM | CC(=O)N[C@@H](/C=C1/CCCC[C@@H]1C(=O)NCCc1ccc2ccccc2c1)COP(=O)(O)O [(2S,5S)-1, (2S,5S)-Ac–pSer–Ψ[(Z)CH = C]–pipecolyl(Pip)–2-(2-naphthyl)ethylamine 1]
